Experimental data from ChEMBL document CHEMBL5550180, “Enhancing anti-cancer capacity: Novel class I/II HDAC inhibitors modulate EMT, cell cycle, and apoptosis pathways” (Bioorg Med Chem, 2024).
Active and inactive are the calls of the source. No cut-off for these calls is given here.

Legend:
[1] = tested on: HT-29; assay: Inhibition of cell migration in human HT-29 cells at 0.5 uM measured immediately by wound healing assay (reference value: 100%); values are per cent of control
[2] = target: T1, Histone deacetylase (Homo sapiens) (UniProt Q13547+O15379+Q9UBN7+Q92769+Q9UQL6+Q8WUI4+Q9BY41+Q96DB2+P56524+Q9UKV0+Q969S8); assay: Inhibition of HDAC in human HT-29 cells assessed as increase in acetyl alpha-tubulin level at 1 to 2 uM incubated for 48 hrs by Western blot analysis; assay type: cell-based; conditions: dose 1-2 µM
[3] = tested on: HT-29; assay: cells; assay type: functional, cell-based; conditions: Homo sapiens, HT-29, 48 h
Description: Anticancer activity against human HT-29 cells assessed as inhibition of cell growth measured for 48 hrs by MTT assay

[4] = tested on: A549; assay: Induction of cell cycle arrest in human A549 cells assessed as effect on p21 level at 2.5 to 5 uM incubated for 48 hrs by Western blot analysis; assay type: functional, cell-based; conditions: dose 2.5-5 µM
[5] = tested on: HT-29; assay: Anticancer activity against human HT-29 cells assessed as viable cells by measuring green fluorescence intensity measured for 48 hrs by Calcein AM staining based fluorescent microscopic analysis; assay type: functional, cell-based; conditions: dose 1-20 µM
[6] = tested on: HT-29; assay: Inhibition of colony formation in human HT-29 cells at 50 to 100 nM measured for 10 days by crystal violet staining based analysis; assay type: functional, cell-based; conditions: dose 50-100 nM, time 10.0 day
[7] = tested on: A549; assay: Induction of cell cycle arrest in human A549 cells assessed as accumulation at G2/M phase at 2.5 to 5 uM incubated for 24 to 48 hrs by PI-staining based flow cytometric analysis; assay type: functional; conditions: dose 2.5-5 µM, time 24-48 hrs
[8] = tested on: A549; assay: Inhibition of cell migration in human A549 cells at 1.25 uM measured immediately by wound healing assay (reference value: 100%); values are per cent of control
[9] = target: T1, Histone deacetylase (Homo sapiens); assay: Inhibition of HDAC in human A549 cells incubated for 48 hrs by Western blot analysis; assay type: cell-based; conditions: dose 0.1-10 µM
[10] = tested on: A549; assay: Anticancer activity against human A549 cells cultured as 3D spheroids assessed as suppression of cell growth at 10 uM incubated for 48 hrs by celltiter-glo luminescent assay; assay type: functional, cell-based
[11] = tested on: A549; assay: Inhibition of colony formation in human A549 cells at 125 to 250 nM measured for 10 days by crystal violet staining based analysis; assay type: functional, cell-based; conditions: dose 125-250 nM, time 10.0 day
[12] = Toxicity in zebrafish embryo assessed as formation of spinal curvature at 0.5 to 2.5 uM measured after 96 hrs post fertilization by microscopic analysis; set-up: species or system Danio rerio; conditions: in vivo, dose 0.5-2.5 µM
[13] = tested on: HT-29; assay: Induction of cell cycle arrest in human HT-29 cells assessed as accumulation at G2/M phase at 2.5 to 5 uM incubated for 24 to 48 hrs by PI-staining based flow cytometric analysis; assay type: functional; conditions: dose 2.5-5 µM, time 24-48 hrs
[14] = Toxicity in zebrafish embryo assessed as formation of spinal curvature at 1 to 5 uM measured after 96 hrs post fertilization by microscopic analysis; set-up: species or system Danio rerio; conditions: in vivo, dose 1-5 µM
[15] = tested on: A549; assay: Induction of cell cycle arrest in human A549 cells assessed as effect on cyclin B1 level at 2.5 to 5 uM incubated for 48 hrs by Western blot analysis; assay type: functional, cell-based; conditions: dose 2.5-5 µM
[16] = tested on: A549; assay: Inhibition of cell migration in human A549 cells at 1.25 uM measured at 24 hrs by wound healing assay (reference value: 68.4%); assay type: functional
[17] = target: T1, Histone deacetylase (Homo sapiens); assay: Inhibition of HDAC in human HT-29 cells assessed as increase in histone acetylation level at 1 to 2 uM incubated for 48 hrs by Western blot analysis; assay type: cell-based; conditions: dose 1-2 µM
[18] = tested on: NCI-H1299; assay: Anticancer activity against human NCI-H1299 cells assessed as reduction in cell viability at 10 to 40 uM incubated for 48 hrs by MTT assay; assay type: functional, cell-based; conditions: dose 10-40 µM
[19] = tested on: HT-29; assay: Inhibition of cell migration in human HT-29 cells assessed as downregulation of vimentin level at 1 to 2 uM incubated for 48 hrs by Western blot analysis; assay type: functional, cell-based; conditions: dose 1-2 µM
[20] = tested on: A549; assay: Induction of apoptosis in human A549 cells assessed as increase in caspase 3 level at 2.5 to 5 uM incubated for 48 hrs by Western blot analysis; assay type: functional, cell-based; conditions: dose 2.5-5 µM
[21] = tested on: A549; assay: Anticancer activity against human A549 cells assessed as suppression of cell viability at 10 uM incubated for 48 hrs by MTT assay; assay type: functional, cell-based
[22] = tested on: HT-29; assay: Inhibition of cell migration in human HT-29 cells at 0.5 uM measured at 24 hrs by wound healing assay (reference value: 85.7%); values are per cent of control; conditions: HT-29, 24 h
[23] = tested on: A549; assay: Induction of cell cycle arrest in human A549 cells assessed as accumulation at sub G1 at 2.5 to 5 uM incubated for 24 to 48 hrs by PI-staining based flow cytometric analysis; assay type: functional; conditions: dose 2.5-5 µM, time 24-48 hrs
[24] = tested on: A549; assay: Anticancer activity against human A549 cells assessed as viable cells by measuring green fluorescence intensity measured for 48 hrs by Calcein AM staining based fluorescent microscopic analysis; assay type: functional, cell-based; conditions: dose 1-20 µM
[25] = Toxicity in zebrafish embryo assessed as effect on body length at 0.5 to 2.5 uM measured after 96 hrs post fertilization by microscopic analysis; set-up: species or system Danio rerio; conditions: in vivo, dose 0.5-2.5 µM
[26] = tested on: HT-29; assay: Inhibition of cell migration in human HT-29 cells at 0.5 uM measured at 48 hrs by wound healing assay (reference value: 73.2%); values are per cent of control; conditions: HT-29, 48 h
[27] = tested on: A549; assay: Induction of apoptosis in human A549 cells assessed as upregulation of p53 expression at 2.5 to 5 uM incubated for 48 hrs by Western blot analysis; assay type: functional, cell-based; conditions: dose 2.5-5 µM
[28] = tested on: A549; assay: Induction of apoptosis in human A549 cells assessed as increase in PARP level at 2.5 to 5 uM incubated for 48 hrs by Western blot analysis; assay type: functional, cell-based; conditions: dose 2.5-5 µM
[29] = Toxicity in zebrafish embryo assessed as hatching rate at 0.5 to 2.5 uM measured after 72 hrs post fertilization by microscopic analysis; set-up: species or system Danio rerio; conditions: in vivo, dose 0.5-2.5 µM
[30] = tested on: HT-29; assay: Anticancer activity against human HT-29 cells assessed as suppression of cell viability at 10 uM incubated for 48 hrs by MTT assay; assay type: functional, cell-based
[31] = Toxicity in zebrafish embryo assessed as formation of scoliosis at 0.5 to 2.5 uM measured after 96 hrs post fertilization by microscopic analysis; set-up: species or system Danio rerio; conditions: in vivo, dose 0.5-2.5 µM
[32] = Toxicity in zebrafish embryo assessed as yolk sac edema at 0.5 to 2.5 uM measured after 96 hrs post fertilization by microscopic analysis; set-up: species or system Danio rerio; conditions: in vivo, dose 0.5-2.5 µM
[33] = tested on: A549; assay: Inhibition of cell migration in human A549 cells at 1.25 uM measured at 48 hrs by wound healing assay (reference value: 42.3%); values are per cent of control; conditions: A549, 48 h
[34] = tested on: HT-29; assay: Inhibition of cell migration in human HT-29 cells assessed as downregulation of slug level at 1 to 2 uM incubated for 48 hrs by Western blot analysis; assay type: functional, cell-based; conditions: dose 1-2 µM
[35] = target: T1, Histone deacetylase (Homo sapiens); assay: Inhibition of HDAC in human HT-29 cells incubated for 48 hrs by Western blot analysis; assay type: cell-based; conditions: dose 0.1-10 µM
[36] = tested on: HT-29; assay: Inhibition of cell migration in human HT-29 cells assessed as upregulation of E-cadherin level at 1 to 2 uM incubated for 48 hrs by Western blot analysis; assay type: functional, cell-based; conditions: dose 1-2 µM
[37] = Toxicity in zebrafish embryo assessed as survival rate at 0.5 to 2.5 uM measured after 72 hrs post fertilization; set-up: species or system Danio rerio; conditions: in vivo, dose 0.5-2.5 µM
[38] = tested on: A549; assay: cells; assay type: functional, cell-based; conditions: Homo sapiens, A549, 48 h
Description: Anticancer activity against human A549 cells assessed as inhibition of cell growth measured for 48 hrs by MTT assay

SMILES: COc1ccc(S(=O)(=O)n2cc(Cc3ccc(C(=O)Nc4ccccc4N)cc3)c3ccccc32)cc1
- wound area remaining at 0.5 µM [1]: 100%
- inhibition [2]: Active
- IC50 [3]: 920 nM
- Activity [4]: Active
- Activity [5]: Dose-Dependent Effect
- inhibition [6]: Active
- Activity [7]: Active
- wound area remaining at 1.25 µM [8]: 100%
- inhibition [9]: Active
- Activity [10]: Active
- inhibition [11]: Active
- Activity [12]: Non-Toxic
- Activity [13]: Active
- Activity [14]: Non-Toxic
- Activity [15]: Active
- inhibition at 1.25 µM [16]: 77.4%
- inhibition [17]: Active
- Activity [18]: Active
- inhibition [19]: Active
- Activity [20]: Active
- Activity [21]: Active
- wound area remaining at 0.5 µM [22]: 93.8%
- Activity [23]: Active
- Activity [24]: Dose-Dependent Effect
- Activity [25]: Non-Toxic
- wound area remaining at 0.5 µM [26]: 90.1%
- Activity [27]: Active
- Activity [28]: Active
- Activity [29]: 100%
- Activity [30]: Active
- Activity [31]: Non-Toxic
- Activity [32]: Non-Toxic
- wound area remaining at 1.25 µM [33]: 53.3%
- inhibition [34]: Active
- inhibition [35]: Active
- inhibition [36]: Active
- survival at 72 h, up to 2.5 µM [37]: ~100%
- IC50 [38]: 2520 nM
